Test: solvent given as SMILES

CC(C)CC(C)C
Details	solvation free energy, 298 K [kcal/mol]
in Brc1ccccc1	-3.81
in C1CCCCC1	-4.32
in C1CCOC1	-4.15
in C1COCCO1	-3.39
in C=CCCCC	-4.22
in C=CCCCCCC	-4.16
in C=CCCCCCCCC	-4.06
in C=CCCCCCCCCCCCCCC	-3.72
in CC1COC(=O)O1	-2.21
in CC#N	-2.78
in CC(=O)N(C)C	-2.97
in CC(=O)O	-3.06
in CC(=O)c1ccccc1	-3.18
in CC(C)=O	-3.45
in CC(C)CC(C)(C)C	-4.15
in CC(C)CCCC(C)CCCC(C)CCCCC(C)CCCC(C)CCCC(C)C	-3.68
in CC(C)CCO	-3.6
in CC(C)O	-3.45
in CC(C)OC(C)C	-4.18
in CCBr	-4.27
in CCC#N	-3.18
in CCC(C)=O	-3.66
in CCCC#N	-3.41
in CCCC(=O)OCC	-3.87
in CCCC(C)=O	-3.74
in CCCCC	-4.33
in CCCCCC	-4.35
in CCCCCC(C)=O	-3.75
in CCCCCCC	-4.22
in CCCCCCCC	-4.14
in CCCCCCCCC	-4.1
in CCCCCCCCCC	-4.06
in CCCCCCCCCCCC	-3.94
in CCCCCCCCCCCCCCCC	-3.85
in CCCCCCCCCCCCO	-3.49
in CCCCCCCCO	-3.57
in CCCCCCOC(C)=O	-3.87
in CCCCO	-3.5
in CCCCOC(C)=O	-3.81
in CCCCOCCCC	-4.13
in CCCO	-3.39
in CCN(CC)CC	-4.26
in CCO	-3.34
in CCOC(C)=O	-3.69
in CCOCC	-4.19
in CCOCCOCCOCC	-3.59
in CCOc1ccccc1	-3.64
in CN1CCCC1=O	-2.82
in CN(C)C=O	-2.82
in CN(C)P(=O)(N(C)C)N(C)C	-3.23
in CNC=O	-2.49
in CO	-2.99
in COC(C)=O	-3.51
in COCCO	-2.84
in COc1ccccc1	-3.57
in CS(C)=O	-2.03
in Cc1ccc(C)cc1	-4.07
in Cc1ccccc1	-4.07
in Cc1ccccn1	-3.66
in ClC(Cl)(Cl)Cl	-4.29
in ClC(Cl)Cl	-4.17
in ClCCCl	-3.63
in ClCCl	-3.96
in Clc1ccccc1	-4.04
in FC(F)(F)C(F)(F)C(F)(F)C(F)(F)C(F)(F)C(F)(F)C(F)(F)C(F)(F)F	-2.77
in FC(F)(F)C(F)(F)C(F)(F)C(F)(F)C(F)(F)C(F)(F)F	-2.85
in Fc1ccccc1	-4.04
in ICI	-2.14
in N#Cc1ccccc1	-3.27
in Nc1ccccc1	-2.55
in O	2.86
in O=C1CCCCC1	-3.56
in O=C1CCCO1	-2.36
in OCc1ccccc1	-2.76
in S=C=S	-4.19
in c1ccccc1	-4.03
in c1ccncc1	-3.4

Clc1ccc2c(c1)Oc1c(Cl)c(Cl)c(Cl)c(Cl)c1O2
Details	solvation free energy, 298 K [kcal/mol]
in O	-4.15

N#Cc1ccncc1
Details	solvation free energy, 298 K [kcal/mol]
in O	-6.02

Cc1ccccc1N(O)C(=O)c1ccc(Cl)cc1
Details	solvation free energy, 298 K [kcal/mol]
in O	-10.8

COC(C)C
Details	solvation free energy, 298 K [kcal/mol]
in O	-2.01

O=C(O)c1ccc(C(=O)O)cc1
Details	solvation free energy, 298 K [kcal/mol]
in CN1CCCC1=O	-16.2
in O	-11.4

CCOC(=O)c1ccc(N)cc1
Details	solvation free energy, 298 K [kcal/mol]
in CC(C)CCO	-11.1
in CCCC(C)O	-11.2

COC=O
Details	solvation free energy, 298 K [kcal/mol]
in C=CCCCCCCCCCCCCCC	-1.95
in CC(=O)N(C)C	-3.41
in CCCCCCCCCCCCCCCC	-1.94
in CCCCN(C=O)CCCC	-2.97
in CCOCCO	-3.08
in CN1CCCC1=O	-3.71
in CNC(C)=O	-3.15
in CS(C)=O	-3.28
in NC=O	-3.07
in O	-2.78
in [2H]O[2H]	-2.82

CN(C)C(=O)Nc1ccc(Cl)cc1
Details	solvation free energy, 298 K [kcal/mol]
in C1CCOC1	-13.7
in CC(C)CC(C)(C)C	-9.58
in CC(C)CCO	-13.1
in CC(C)CO	-13.1
in CC(C)O	-13.1
in CCC(C)O	-13.1
in CCCC(C)O	-13
in CCCCC(CC)CO	-12.8
in CCCCCC	-9.81
in CCCCCCC	-9.75
in CCCCCCCC	-9.79
in CCCCCCCCCC	-9.8
in CCCCCCCCCCO	-12.8
in CCCCCCCO	-13
in CCCCCCO	-13.2
in CCCCCO	-13.2
in CCCCO	-13.3
in CCCCOC(C)=O	-12.8
in CCCCOCCCC	-11.6
in CCCO	-13.3
in CCO	-13.4
in CCOC(C)=O	-13.1
in CO	-13.7
in COC(C)=O	-13.1
in ClC(Cl)(Cl)Cl	-11.1
in ClC(Cl)Cl	-13.3
in ClCCCl	-13
in ClCCl	-13.3
in O	-10.4

Clc1cc(Cl)c2c(c1Cl)Oc1ccccc1O2
Details	solvation free energy, 298 K [kcal/mol]
in O	-4.05

C=CC1(C)CCC(=C(C)C)CC1C(=C)C (centres undefined)
Details	solvation free energy, 298 K [kcal/mol]
in O	-0.35

CCCCCC(C)=O
Details	solvation free energy, 298 K [kcal/mol]
in CC(C)CCCC(C)CCCC(C)CCCCC(C)CCCC(C)CCCC(C)C	-4.99
in CCCCCC	-5.36
in CCCCCCC	-5.22
in CCCCCCCC	-5.25
in CCCCCCCCCC	-5.18
in CCCCCCCCCCCCCCCC	-5.06
in CCCCCCCCO	-5.65
in CCCCOCCCC	-5.73
in CO	-5.98
in NC=O	-4.75
in O	-3.09
in [2H]O[2H]	-3.07

FC(F)(F)c1cccc(C(F)(F)F)c1
Details	solvation free energy, 298 K [kcal/mol]
in O	1.07

O=C1c2ccccc2C(=O)c2c(Cl)cccc21
Details	solvation free energy, 298 K [kcal/mol]
in C1CCOC1	-15
in CC(=O)N(C)C	-14.9
in CC(C)(C)O	-12.6
in CC(C)CC(C)(C)C	-12
in CC(C)CC(C)O	-12.7
in CC(C)CCO	-12.7
in CC(C)CO	-12.6
in CC(C)O	-12.6
in CCC(C)O	-12.7
in CCCC(C)CO	-12.8
in CCCC(C)O	-12.8
in CCCCCC	-12.2
in CCCCCCC	-12.3
in CCCCCCCC	-12.3
in CCCCCCCCCC	-12.4
in CCCCCCCCCCO	-13.1
in CCCCCCCCO	-13.1
in CCCCCCCO	-13.1
in CCCCCCO	-13.1
in CCCCCO	-12.9
in CCCCCOC(C)=O	-13.9
in CCCCO	-12.8
in CCCCOC(C)=O	-14
in CCCCOCCCC	-13.1
in CCCO	-12.8
in CCCOC(C)=O	-14.1
in CCOC(C)=O	-14.2
in CCOCC	-13.4
in CO	-12.7
in COC(C)(C)C	-13.4
in COC(C)=O	-14.3
in Fc1ccccc1	-14.6
in O	-8.23

CCNc1nc(NC(C)CC)nc(OC)n1 (centres undefined)
Details	solvation free energy, 298 K [kcal/mol]
in O	-9.89

O=C1c2ccccc2C(=O)c2c(NCCO)cccc21
Details	solvation free energy, 298 K [kcal/mol]
in O	-14.2

CCF
Details	solvation free energy, 298 K [kcal/mol]
in C1CCOC1	-1.79
in CCCCCCC	-1.45
in CN1CCCC1=O	-1.86
in CN(C)C=O	-1.95
in O	0.41

CC12CCC(=O)C=C1CCC1C2C(O)CC2(C)C1CCC2(O)C(=O)C(O)C(CCCCC(N)=O)C(N)=O (centres undefined)
Details	solvation free energy, 298 K [kcal/mol]
in C=CCCCCCCC=C	-29.8
in C=CCCCCCCCCCCCCCC	-27.4
in O	-33.7

Clc1ccccc1Cl
Details	solvation free energy, 298 K [kcal/mol]
in C1CCOC1	-7.11
in C1COCCO1	-7.01
in CCCCCC	-6.14
in CCCCCCC	-6.01
in CCCCCCCCCCCCCCCC	-6.04
in CCCCCCCCO	-5.95
in CN(C)C=O	-6.82
in ClC(Cl)(Cl)Cl	-6.79
in N#Cc1ccccc1	-6.82
in NC=O	-4.55
in O	-1.4

CCC[N+](=O)[O-]
Details	solvation free energy, 298 K [kcal/mol]
in CC(C)CC(C)(C)C	-3.94
in CCCCCC	-4.05
in CCCCCCC	-3.97
in CCCCCCCC	-3.95
in CCCCCCCCCCCCCCCC	-3.79
in CCCCCCCCO	-4.44
in O	-3.38
in [2H]O[2H]	-3.44

CCCC=CC=O
Details	solvation free energy, 298 K [kcal/mol]
in O	-3.68

O=Cc1ccccc1O
Details	solvation free energy, 298 K [kcal/mol]
in O	-4.71

CCCC(C)(C)O
Details	solvation free energy, 298 K [kcal/mol]
in CCCCCCCC	-4.59
in CCCCCCCCCC	-4.54
in O	-3.92

C1CCNCC1
Details	solvation free energy, 298 K [kcal/mol]
in C1CCOC1	-5.22
in C1COCCO1	-4.95
in COC(C)(C)C	-4.87
in O	-5.11

CC(C)Nc1nc(Cl)nc(NC(C)C)n1
Details	solvation free energy, 298 K [kcal/mol]
in O	-9.55

COc1cc(C=O)cc(-c2cc(C=O)cc(OC)c2O)c1O
Details	solvation free energy, 298 K [kcal/mol]
in CCC(C)=O	-21.9
in Cc1ccccc1	-19.6
in ClC=CCl	-20.6

CN1C(C(=O)Nc2ccccn2)=C(O)c2ccccc2S1(=O)=O
Details	solvation free energy, 298 K [kcal/mol]
in CN(C)C=O	-21
in NC=O	-19.3
in O	-15.8

CC(=O)NS(=O)(=O)c1ccc(N)cc1
Details	solvation free energy, 298 K [kcal/mol]
in O	-18.4

CCCCCCCOC(=O)c1ccccc1C(=O)OCCCCC
Details	solvation free energy, 298 K [kcal/mol]
in O	-6.78

COC(=O)OC
Details	solvation free energy, 298 K [kcal/mol]
in C1CCCCC1	-3.6
in CC(Cl)(Cl)Cl	-4.63
in CCC1CO1	-4.73
in CCCO	-3.72
in COC(C)(C)C	-4.24
in ClC(Cl)(Cl)Cl	-4.27
in ClCCCl	-5.04
in O	-3.53
in c1ccccc1	-4.66

Reference: the CombiSolv-Exp solvation set (Vermeire and Green 2021)
